Measured values taken from US20230287343A1, “METHOD FOR GENERATING A THREE-DIMENSIONAL NEUROMUSCULAR ORGANOID IN VITRO” (MAX-DELBRÜCK-CENTRUM FÜR MOLEKULARE MEDIZIN IN DER …, priority 2020, published 2023).
“Also recorded” adds a separate entry of the source.

What was measured:
[1] = tested on: neuromuscular organoids (NMOs); assay: Microelectrode array (MEA) recording of NMO electrical activity; type: cell-based, human; conditions: for suppression of electrical activity: APV 50 uM and CNQX 40 uM applied together; for local (single electrode) firings / synchronous network activity (paired electrode spikes): NMDA and 5-HT stimulation at day 50; for rhythmic activity (central pattern generator-like): NMDA/5-HT cocktail; for activity triggered by the drugs (fictive locomotion paradigm): cocktail of NMDA (10 uM) and 5-HT (40 uM)
[2] = tested on: neuromuscular organoids (NMOs); assay: Contractile activity of NMOs before and after curare; type: cell-based, human; conditions: curare 10 uM, before and after treatment
Experimental: Video segments of equal length were recorded using a bright-field microscope (DMI1, Leica) in 3 different regions of the same organoid using 20× zoom. To quantify muscle contractions, each movie was analyzed separately where each visible contraction was counted and then averaged for the whole organoid.
To analyze and map organoid muscular contraction, bright field time series images were automatically thresholded using ImageJ software to identify organoid border. A binary stack was created and contractile regions were visually identified. Regions of interest were defined and variations of organoid area (in pixel), used as a proxy of physical contraction, were plotted over the time series.

In the case of N[C@@H](CCCP(=O)(O)O)C(=O)O [APV], the “suppression of electrical activity” value [1] is reported as “reversibly suppressed nearly all electrical activity”.
With CN[C@H](CC(=O)O)C(=O)O [NMDA] the “local (single electrode) firings” value [1] was “increased single firings; also recorded: notable increase of local firings”, the “synchronous network activity (paired electrode spikes)” value [1] was “increase in paired electrode spikes; also recorded: dramatic increase of synchronous network activity” and the “rhythmic activity (central pattern generator-like)” value ([1]; day 50 NMOs) was “activity became rhythmic; also recorded: produced rhythmic bursts of electrical activity”. The “activity triggered by the drugs (fictive locomotion paradigm)” value [1] was “instantaneously triggered strong activity”.
With curare the “block of acetylcholine-stimulated electrical activity” value ([1]; curare 10 uM, day 50 NMOs) was “rapidly and reversibly blocked” and the “contraction of the skeletal muscles (contractile activity of NMOs)” value [2] was “blocked the contraction of the skeletal muscles; also recorded: organoid relaxation”.
For NC1=N[C@H](O)[C@H]2[C@H]3O[C@]4(O)O[C@@H]([C@@H](O)[C@@]2(N1)[C@@H]4O)[C@]3(O)CO [tetrodotoxin], the “suppression of NMDA/5-HT triggered activity” value [1] was “reversibly suppressed”.
With N[C@@H](CCC(=O)O)C(=O)O [glutamate] the “increase of spontaneous activity” value ([1]; acute glutamate 50 uM, day 30 and day 50 organoids) was “approximately 12 fold”.
For N#Cc1cc2[nH]c(=O)c(=O)[nH]c2cc1[N+](=O)[O-] [CNQX], the “suppression of electrical activity” value [1] was “reversibly suppressed nearly all electrical activity”.
NCCc1c[nH]c2ccc(O)cc12 [5-HT, Serotonin] was tested, and the “local (single electrode) firings” value [1] was “increased single firings; also recorded: notable increase of local firings”, the “synchronous network activity (paired electrode spikes)” value [1] was “increase in paired electrode spikes; also recorded: dramatic increase of synchronous network activity” and the “rhythmic activity (central pattern generator-like)” value ([1]; day 50 NMOs) was “activity became rhythmic; also recorded: produced rhythmic bursts of electrical activity”. For the same molecule, the “activity triggered by the drugs (fictive locomotion paradigm)” value [1] was “instantaneously triggered strong activity”.
